{"source": "patent US6818631B1", "about": "“Fungicidal pyrimidine derivatives” (Nippon Soda Co. Ltd., priority 2003, dated 2004)", "data": [{"values": [{"compound": "CSc1nc(-c2nn[nH]n2)c(I)c(C(F)(F)F)n1", "note": "[Example 15, 5-Iodo-2-methylthio-4-(2H-tetrazol-5-yl)-6-trifluoromethyl-pyrimidine]", "melting point": "196 to 200 °C"}, {"compound": "O=C1CCCN1c1nc(-n2ccnc2)c(I)c(C(F)(F)F)n1", "note": "[Example 14, 1-(4-Imidazol-1-yl-5-iodo-6-trifluoromethylpyrimidin-2-yl)-pyrrolidin-2-one]", "melting point": "195 to 197 °C"}, {"compound": "Fc1c(-n2ccnc2)nc(-n2ccnc2)nc1C(F)(F)F", "note": "[Example 19, 5-Fluoro-2,4-diimidazol-1-yl-6-trifluoromethylpyrimidine]", "melting point": "142 to 150 °C (dec.)"}, {"compound": "C#CCOc1nc(-n2ccnc2)c(I)c(C(F)(F)F)n1", "note": "[Example 13, 4-Imidazol-1-yl-5-iodo-2-prop-2-ynyloxy-6-trifluoromethyl-pyrimidine]", "melting point": "128 to 129 °C"}, {"compound": "C#Cc1c(-n2ccnc2)nc(C)nc1C(F)(F)F", "note": "[Example 18, 5-Ethynyl-4-imidazol-1-yl-2-methyl-6-trifluoromethylpyrimidine]", "melting point": "121 to 122 °C"}]}]}
